Data published in patent US7507707B2, “Methods of inducing ovulation using a non-polypeptide camp level modulator” (Laboratoires Serono SA, priority 2001, dated 2009).

Experiments:
[1] = system: rat ovarian granulosa cells; assay: Rat ovarian granulosa cell cAMP levels, alone or with gonadotropins in vitro (cAMP specific RIA); assay type: cell-based; settings: 25 micromolar compound with subeffective (0.1 pM) gonadotropin, 48 hrs
Description: Ovaries were removed from immature 25 day old, hypophysectomized, diethylstilbesterol treated Sprague-Dawley rats. The ovaries were repeatedly punctured with 27 gauge needles to liberate granulosa cells from the follicles. Cells were washed and re-suspended in McCoys 5A media+0.1% BSA+2 μM androstenedione. Viable cells in number of 100,000 were loaded into 6-well tissue culture dishes in a 1.0 ml volume (with Compound 1 and Compound 2 at a concentration of 25 micromolar, either alone or in conjunction with a low, 0.1 pM dose of gonadotropin). Plates were incubated in a 37° C. incubator, 100% humidity, 5.0% CO2 for 48 hrs. Conditioned media were assayed in a cAMP specific RIA. Results are expressed as mean plus or minus standard deviations.

immature female rats [2] = assay: In vivo ovulation model: FSH-pretreated immature rats, oocytes counted in oviduct after 18 hours; set-up: species or system rat
Description: The role of FSH in any ovulation induction regimen is for promoting follicular development and maturation, not ovulation induction.
All injections were subcutaneous. Results are expressed as mean plus or minus standard deviations. […] The effects of Compound 1, a known PDE inhibitor are shown.
Data represent average number of oocytes in oviducts of all rats in each group and frequency of ovulating rats. […] Results are expressed as mean plus or minus standard deviations.
Data represent average number of oocytes in oviducts of all rats in each group and frequency of ovulating rats. Results are expressed as mean plus or minus standard deviations.
(§1) Following FSH induced follicular maturation (2.16 IU/rat/injection; bid×2 days) Compound 2 was either injected subcutaneously (subcutis) or administered by oral gavage. Ovulation was determined 18 hours after Compound 2 administration by counting oocytes in oviduct. Data represent average number of oocytes in oviducts of all rats in each group and frequency of ovulating rats. Results are expressed as mean plus or minus standard deviations.
as §1, with “days) […] was either” for “days) Compound 2 was either”

immature rats = assay: Ovulation and fertility in FSH/PMSG pretreated immature rats; assay type: in vivo, rat; settings: single subcutaneous injection
Description: Follicular maturation was induced in immature rats with FSH (4.33 IU/rat/injection; bid×2 days) and Pregnant Mare's Serum Gonadotropin (PMSG) (1.5 IU/rat/injection; bid×2 days). […] FSH and PMSG induced rats were then treated with either Compound 2 (12 rats) or vehicle (12 rats) by subcutaneous administration. In one cohort of rats (6 rats per treatment), ovulation was determined 18 hours after Compound 2 or vehicle administration by counting oocytes in oviduct. To assess fertility, another cohort of rats (6 rats per treatment) were individually placed overnight in a cage together with a single adult male rat of proven fertility. The next day, male rats were removed and the females were caged together by group until the day of parturition. The number of live full-term pups observed at the time of parturition was recorded. […] Results for both ovulation and live pups are expressed as mean plus or minus standard deviations.

immature female rats [3] = assay: Follicle maturation in vivo: sub-optimal FSH with co-administered PDE inhibitor, ovulatory hCG, oocytes counted in oviduct; set-up: species or system rat
Description: Mature ovarian follicles generated in immature female rats by treatment with a sub-optimal dose of FSH (1.08 IU/rat/injection; bid×3 days) with and without co-administration of Compound 1 (0.1, 1, 10, and 50 mg/kg/injection: bid×3 days). […] The PDE inhibitors were given in conjunction with sub-optimal doses of FSH. All injections were subcutaneously administered. […] Results are expressed as mean plus or minus standard deviations. […] As also noted in FIG. 3, a PDE inhibitor (Compound 1) inhibited (rather than stimulated) both ovulation administered at 50 mg/kg.

[4] = subcutaneous injection alone, without hCG
[5] = single subcutaneous injection co-administered with sub-effective dose of hCG

Compound	cAMP levels in conditioned media [1]	ovulation (oocytes in oviduct) (immature female rats [2]; oral gavage, without hCG)	ovulation (oocytes in oviduct) (immature female rats [2]; [4])	ovulation (oocytes in oviduct) (immature rats; 18 hours)	number of live full-term pups at the time of parturition (immature rats; mated overnight)	ovulation (oocytes in oviduct, frequency of ovulating rats) (immature female rats [3]; 50 mg/kg/injection bid x 3 days s.c. with sub-optimal FSH (1.08 IU), ovulatory hCG 20 IU)	ability of a sub-optimal dose of FSH to prepare follicles to ovulate (immature female rats [3]; increasing doses 0.1, 1, 10, 50 mg/kg/injection bid x 3 days s.c. with sub-optimal FSH)	ovulation (oocytes in oviduct) (immature female rats [2]; [5])
COc1ccc(C(=O)Nc2c(Cl)cncc2Cl)cc1OC1CCCC1 [Compound 2, 3-(Cyclopentyloxy)-N-(3,5-dichloropyridin-4-yl)-4-methoxybenzamide]	significant increase	induction of ovulation	induction of ovulation	induction of ovulation	increased number of live pups			
COc1ccc([C@]2(C#N)CC[C@@H](C(=O)O)CC2)cc1OC1CCCC1 [Compound 1, Cis-4-cyano-4-(3-(cyclopentyloxy)-4-methoxyphenyl)cyclohexane-1-carboxylic acid]	significant increase		induction of ovulation			inhibited	failed to enhance	induction of ovulation
Clc1nc2c(N3CCCC3)nc(N3CCNCC3)nc2nc1NCc1ccccc1 [Compound 4, 7-Benzylamino-6-chloro-2-piperazino-4-pyrrolidinopteridine]			little or no ovulation					induction of ovulation
CCOc1cc2cc(CO)c(CO)c(-c3ccnc(-n4nc(-c5cccnc5)c5ccccc5c4=O)c3)c2cc1OCC.Cl [Compound 3, 2-(4-(6,7-Diethoxy-2,3-bis(hydroxymethyl)naphthalen-1-yl)pyridin-2-yl)-4-(3-pyridyl) pthalazin-1 (2H)-one hydrochloride]		induction of ovulation	induction of ovulation					
